Legend:
[1] = test system: influenza virus strain A/Puerto Rico/8/34 (H1N1); format: cell-based; conditions: result in words; for activity against influenza virus strain A/Puerto Rico/8/34 (H1N1): MDCK cells
[2] = test system: MDCK cells; assay: Cytotoxicity in MDCK cells, MTT assay; format: cell-based; conditions: result in words

SMILES | activity against influenza virus strain A/Puerto Rico/8/34 (H1N1) [1] | SI relative to the reference drug rimantadine ([1]; influenza A H1N1 in MDCK cells) | cytotoxicity [2]
O=C(Cn1nnc(-c2ccccc2)n1)NNc1ncccn1 [Compound 7a, N '-(Pyrimidin-2-yl)-2-(5-phenyl-2 H -tetrazol-2-yl)acetohydrazide] | did not show activity |  | 
Cc1cc(C)nc(NNC(=O)Cn2nnc(-c3ccccc3)n2)n1 [Compound 7b, N '-(4,6-Dimethylpyrimidin-2-yl)-2-(5-phenyl-2 H -tetrazol-2-yl)acetohydrazide] | did not show activity |  | 
c1ccc(-n2nnnc2Sc2ncccn2)cc1 [Compound 12a, 2-[(1-Phenyl-1 H -tetrazol-5-yl)sulfanyl]pyrimidine] | did not show activity |  | 
Cc1cc(C)nc(Sc2nnnn2CC(=O)O)n1 [Compound 12b, {5-[(4,6-Dimethylpyrimidin-2-yl)sulfanyl]-1 H -tetrazol-1-yl}acetic acid] |  | twice | significantly lower cytotoxicity

— article PMC8118680 (Chemistry of Heterocyclic Compounds, 2021)
